Experimental data from patent US20090131327A1, “NOGO RECEPTOR FUNCTIONAL MOTIFS AND PEPTIDE MIMETICS RELATED THERETO AND METHODS OF USING THE SAME” (priority 2005, published 2009).
Where “and” joins values, the source holds several entries; their conditions need not be identical. Equal entries are not always repeated. Entries after “also recorded” stand apart in the source; their conditions may differ. Positions of bridges follow the written chain, without caps; N, C: chain ends.

Tests used:
[1] = system: cerebellar neurons; assay: Neurite outgrowth assay: antagonism of MAG-Fc-mediated inhibition of neurite outgrowth, neurons over 3T3 monolayers; type: cell-based, rat; settings: for effectiveness in antagonizing MAG inhibition relative to NRL2: compared with parental peptide NRL2
Method: (§1) Cerebellar neurons isolated from postnatal day 2/3 rat pups were cultured over monolayers of 3T3 cells (Doherty et al. (1991) Neuron 6(2):247-58) essentially as previously described (Williams et al. (1994) Neuron 13(3):583-94). Monolayers were established by seeding ˜80,000 cells into individual chambers of an eight-chamber tissue culture slide coated with poly-L-lysine and fibronectin. The cell lines, and monolayers, were maintained in Dulbecco's modified Eagle's medium supplemented with 10% fetal calf serum (FCS). Cocultures were established by removing the media from the monolayers and seeding ˜6000 dissociated cerebellar neurons into each well in SATO medium (modified from Doherty et al. (1990) Neuron 5(2):209-19; Dulbecco's modified Eagle's medium supplemented with 2% FBS, 33% bovine albumin, 0.62 μg/ml progesterone, 161 μg/ml putrescine, 4 μg/ml L-thyroxine, 0.387 μg/ml selenium, and 3.37 μg/ml tri-iodo-thyronine (components from Sigma-Aldrich, St. Louis, Mo.)). Monolayers were established for 24 hours prior to addition of the neurons and the cultures were maintained for ˜23-27 hr. Following careful fixation with 4% paraformaldehyde, the neurons were immunostained with a GAP-43 antibody, and the mean length of the longest neurite per cell was measured for ˜120-150 neurons, again as previously described (Williams et al. (1994) Neuron 13(3):583-94).
(§2) Synthetic peptides were all obtained from a commercial supplier (Multiple Peptide Systems, San Diego, Calif.). All peptides were purified to the highest grade by reverse-phase HPLC and obtained at the highest level of purity (>97%). With all peptides, there was no indication of higher molecular weight species. Where peptide sequences are underlined, this denotes a peptide that has been cyclized via a disulfide bond between the given cysteine residues. All peptides were acetylated (e.g., denoted with “N—Ac—”) and amide blocked (e.g., denoted with “—NH2”). Recombinant MAG-Fc chimera was obtained from R&D Systems (Minneapolis, Minn.) and used at final concentrations ranging from 5-25 μg/ml. The monoclonal antibody to GT1b (clone GMR5) was obtained from Seikagaku America (Falmouth, Mass.) and was used at a final concentration of 20 μg/ml. All reagents were diluted into the coculture media and, in general, added to the cultures just prior to the plating of the neurons.
MAG was the first inhibitory component of myelin to be identified based on its ability to inhibit neurite outgrowth from postnatal rat cerebellar neurons (Mukhopadhyay et al. (1994) Neuron 13(3):757-67). […] NgR1 function is required for MAG inhibition of neurite outgrowth (Domeniconi et al. (2002) Neuron 35(2):283-90; Liu et al. (2002) Science 297:1190-93). Consequently, in order to determine if the mimetic peptides could antagonize, (e.g., reverse, decrease, reduce, prevent, etc.) NgR1 function (e.g., reverse NgR1-ligand-mediated inhibition of axonal growth), the peptides were tested for their ability to antagonize MAG-mediated inhibition of axonal growth. […] The ability of the NRL peptides to antagonize MAG-mediated inhibition of axonal growth was tested in a number of independent experiments. […] In order to evaluate the efficacy of the NRL2 peptide, the ability of various concentrations of NRL2 to overcome the inhibitory activity of 25 μg/ml of the soluble MAG-Fc chimera was tested. Results obtained from at least three independent experiments have been pooled to generate FIG. 3.

[2] = system: cerebellar neurons; assay: Neurite outgrowth assay: substance alone in coculture media, neurons over 3T3 monolayers; type: cell-based, rat; settings: without MAG-Fc; for effect on neurite outgrowth in control media: peptide alone
Method: as §1, §2
MAG was the first inhibitory component of myelin to be identified based on its ability to inhibit neurite outgrowth from postnatal rat cerebellar neurons (Mukhopadhyay et al. (1994) Neuron 13(3):757-67). […] NgR1 function is required for MAG inhibition of neurite outgrowth (Domeniconi et al. (2002) Neuron 35(2):283-90; Liu et al. (2002) Science 297:1190-93). […]

[3] = system: cerebellar neurons; assay: Neurite outgrowth assay: antagonism of MAG-Fc-mediated inhibition of neurite outgrowth, neurons over 3T3 monolayers; type: cell-based, rat; settings: MAG-Fc 20 μg/ml; for peptide concentration with maximal promotion of neurite outgrowth / peptide concentration with significant promotion of neurite outgrowth: FIG. 5; for antagonism of inhibitory activity of MAG-Fc: peptide 50 μg/ml (60 μM); for antagonism of MAG-Fc inhibition of neurite outgrowth: peptide 100 μg/ml, ~23-27 hr, FIG. 2
[4] = system: cerebellar neurons; assay: Neurite outgrowth assay: antagonism of inhibition by anti-GT1b antibody; type: cell-based, rat; settings: peptide 100 μg/ml; anti-GT1b up to 40 μg/ml; FIG. 4
Method: Cerebellar neurons isolated from postnatal day 2/3 rat pups were cultured over monolayers of 3T3 cells (Doherty et al. (1991) Neuron 6(2):247-58) essentially as previously described (Williams et al. (1994) Neuron 13(3):583-94). Monolayers were established by seeding ˜80,000 cells into individual chambers of an eight-chamber tissue culture slide coated with poly-L-lysine and fibronectin. The cell lines, and monolayers, were maintained in Dulbecco's modified Eagle's medium supplemented with 10% fetal calf serum (FCS). Cocultures were established by removing the media from the monolayers and seeding ˜6000 dissociated cerebellar neurons into each well in SATO medium (modified from Doherty et al. (1990) Neuron 5(2):209-19; Dulbecco's modified Eagle's medium supplemented with 2% FBS, 33% bovine albumin, 0.62 μg/ml progesterone, 161 μg/ml putrescine, 4 μg/ml L-thyroxine, 0.387 μg/ml selenium, and 3.37 μg/ml tri-iodo-thyronine (components from Sigma-Aldrich, St. Louis, Mo.)). Monolayers were established for 24 hours prior to addition of the neurons and the cultures were maintained for ˜23-27 hr. Following careful fixation with 4% paraformaldehyde, the neurons were immunostained with a GAP-43 antibody, and the mean length of the longest neurite per cell was measured for ˜120-150 neurons, again as previously described (Williams et al. (1994) Neuron 13(3):583-94). […]

[5] = system: myelin; assay: Antagonism of the inhibitory activity of myelin (data not shown); type: cell-based

N-Ac-CQKFRGC-NH2 (disulfide 1-7; SMILES CC(=O)N[C@H]1CSSC[C@@H](C(N)=O)NC(=O)CNC(=O)[C@H](CCCNC(=N)N)NC(=O)[C@H](Cc2ccccc2)NC(=O)[C@H](CCCCN)NC(=O)[C@H](CCC(N)=O)NC1=O) [NRL2b]
effectiveness in antagonizing MAG inhibition relative to NRL2 [1]: as effective as NRL2 | effectiveness in antagonizing MAG inhibition relative to NRL2 ([1]; listed as N-Ac-CQKFRGC-NH2): as effective as the longer parental peptide | effect on neurite outgrowth in control media [2]: no effect | peptide concentration with maximal promotion of neurite outgrowth [3]: 50 μg/ml and 60 μM | peptide concentration with significant promotion of neurite outgrowth [3]: 25 μg/ml and 30 μM | antagonism of inhibitory activity of MAG-Fc [3]: effectively antagonized

N-Ac-CYNEPKVTC-NH2 (disulfide 1-9; SMILES CC(=O)N[C@H]1CSSC[C@@H](C(N)=O)NC(=O)[C@H]([C@@H](C)O)NC(=O)[C@H](C(C)C)NC(=O)[C@H](CCCCN)NC(=O)[C@@H]2CCCN2C(=O)[C@H](CCC(=O)O)NC(=O)[C@H](CC(N)=O)NC(=O)[C@H](Cc2ccc(O)cc2)NC1=O) [NRL1]
antagonism of MAG-Fc inhibition of neurite outgrowth [3]: MAG-Fc also substantially inhibited neurite outgrowth

N-Ac-CSLPQRLAC-NH2 (disulfide 1-9; SMILES CC(=O)N[C@H]1CSSC[C@@H](C(N)=O)NC(=O)[C@H](C)NC(=O)[C@H](CC(C)C)NC(=O)[C@H](CCCNC(=N)N)NC(=O)[C@H](CCC(N)=O)NC(=O)[C@@H]2CCCN2C(=O)[C@H](CC(C)C)NC(=O)[C@H](CO)NC1=O) [NRL3]
antagonism of MAG-Fc inhibition of neurite outgrowth [3]: MAG-Fc also substantially inhibited neurite outgrowth

N-Ac-CLQKFRGSSC-NH2 (disulfide 1-10; SMILES CC(=O)N[C@H]1CSSC[C@@H](C(N)=O)NC(=O)[C@H](CO)NC(=O)[C@H](CO)NC(=O)CNC(=O)[C@H](CCCNC(=N)N)NC(=O)[C@H](Cc2ccccc2)NC(=O)[C@H](CCCCN)NC(=O)[C@H](CCC(N)=O)NC(=O)[C@H](CC(C)C)NC1=O) [NRL2]
activity as MAG antagonist (summary in discussion) ([1]; four disulfide-constrained NgR1 loop peptides): effective MAG antagonist | effect on neurite outgrowth in control media [2]: no effect | effect on control neurite outgrowth ([2]; tested at up to 200 μg/ml, FIG. 3): little effect | antagonism of inhibitory effects of anti-GT1b antibody [4]: reversed; also recorded: just as effective | antagonism of MAG-Fc inhibition of neurite outgrowth [3]: largely antagonized

NGF: nerve growth factor
antagonism of the inhibitory activity of myelin [5]: do not antagonize

N-Ac-CKFRGSC-NH2 (disulfide 1-7; SMILES CC(=O)N[C@H]1CSSC[C@@H](C(N)=O)NC(=O)[C@H](CO)NC(=O)CNC(=O)[C@H](CCCNC(=N)N)NC(=O)[C@H](Cc2ccccc2)NC(=O)[C@H](CCCCN)NC1=O) [NRL2a]
effectiveness in antagonizing MAG inhibition relative to NRL2 [1]: as effective as NRL2 | effectiveness in antagonizing MAG inhibition relative to NRL2 ([1]; listed as N-Ac-CKFRGSC-NH2): as effective as the longer parental peptide | effect on neurite outgrowth in control media [2]: no effect | peptide concentration with maximal promotion of neurite outgrowth [3]: 50 μg/ml and 60 μM | peptide concentration with significant promotion of neurite outgrowth [3]: 25 μg/ml and 30 μM | antagonism of inhibitory activity of MAG-Fc [3]: effectively antagonized

Ac-CTDIKGKEC-NH2 (cysteine pairing not given here)
antagonism of the inhibitory activity of myelin [5]: do not antagonize

N-Ac-CAGRDLKRC-NH2 (disulfide 1-9; SMILES CC(=O)N[C@H]1CSSC[C@@H](C(N)=O)NC(=O)[C@H](CCCNC(=N)N)NC(=O)[C@H](CCCCN)NC(=O)[C@H](CC(C)C)NC(=O)[C@H](CC(=O)O)NC(=O)[C@H](CCCNC(=N)N)NC(=O)CNC(=O)[C@H](C)NC1=O) [NRL4]
antagonism of MAG-Fc inhibition of neurite outgrowth [3]: MAG-Fc also substantially inhibited neurite outgrowth

N-Ac c[sGrfkq]-NH2 (XGXXXX; not fully specified; cyclised or stapled) [hriNRL2]
reversal of MAG-mediated inhibition of neurite outgrowth ([3]; increasing peptide concentrations, FIG. 6): reverse MAG-mediated inhibition of neurite outgrowth
